Results on 14 molecules are retold here after patent US20250230138A1, “COMPOUNDS HAVING A T-STRUCTURE FORMED BY AT LEAST FOUR CYCLES FOR USE IN THE TREATMENT OF CANCER AND OTHER INDICATIONS” (TheRas, Inc., priority 2022, published 2025).

A word on the IC50: it is the point on the concentration scale where inhibition reaches its midpoint.

Assay [1] concerns the target Cys242 in human PIK3CA (157-299) (Homo sapiens (Human), UniProt P42336). The assay is described as follows: Covalent modification assay using MALDI-TOF MS. As to conditions: 4 h reaction time point. The assay is classed as biochemical. As to the method:
Matrix-Assisted Laser Desorption Ionization-Time of Flight Mass Spectrometry (MALDI-TOF MS) analysis of covalent modification of Cys242 in human PIK3CA (157-299) was performed.
Reaction: 3.33 μM or 1 μM of PIK3CA (157-299) protein (produced in-house by Protein Expression Laboratory, FNLCR/Leidos Biomed) in 20 mM HEPES buffer containing 150 mM NaCl, 2 mM MgCl2, pH 7.3 was prepared freshly before assay. Twelve-μL aliquots of protein were dispensed onto low volume 384-well plate, then 470 nL DMSO and 30 nL of tested compounds from 10 mM DMSO stocks were added to appropriate wells using ECHO 555 acoustic liquid handler (Labcyte Inc.). For each reaction/assay, three blanks were prepared by mixing 12 μL of protein solution with 500 nL DMSO. The wells content was carefully mixed by aspiration, and then the plate was sealed by an adhesive cover, centrifuged at 931 g for 1 minute, and kept in the dark at room temperature until 15 min, 30 min, 2 h, or 4 h collections.
Targetpretreatment: Before each assay MALDI target (Bruker MPT 384 ground steel BC) was pre-treated by pipetting on each spot 0.75 μL of saturated sinapinic acid in acetonitrile (ACN).
Sample preparation: At collection time point, 2 μL of reaction mixtures were pipetted out into […] MALDI matrix solution (saturated solution of sinapinic acid in 1:1 ACN:water solution containing 0.15% trifluoroacetic acid (TFA)) deposited on 384 well polypropylene plate. The resulting solution was mixed by aspiration, centrifuged at 931 g for 1 minute, then 1.5 μL aliquots were dispensed on pre-treated MALDI target using Beckman Coulter Biomek FX^P 96/384-Span-8 Laboratory Automation Workstation. Finally, the MALDI target was dried under a mild vacuum to produce spots with a fine crystalline structure.
Measurements: MALDI-TOF measurements were performed on Bruker Daltonics rapifleX Tissuetyper TOF-TOF mass spectrometer using linear mode and mass ranging from 16.0 to 19.6 kDa. Detector gain was set to 0.64×(459 V), sample rate to 5 GS/s, real-time smoothing to medium (175 MHz), laser smart beam pattern was set to “Custom” single smartbeam beam scan with a scan range of 40 μm on both X and Y axis, and the laser frequency was 10000 Hz. Spectra were automatically collected using the custom AutoXecute method. Laser power was auto adjusted using fuzzy control. The peak selection range was set to be between 16.0 and 18.5 kDa. Peak evaluation uses a half-width parameter set to be smaller than 40 Da for processed spectrograms (centroid peak detection; smoothed by SavitzkyGolay algorithm using 7 m/z width and 2 cycles; baseline was subtracted using a median algorithm with flatness 1 and median level 0). Fuzzy control used Proteins/Oligonucleotides protocol with minimum half-width 1/10 times above threshold. Up to 40000 satisfactory shots were collected in 10000 short steps. Dynamic termination was implemented to finish data collection when the peak signal/noise ratio was reaching a value of 1000.
Spectra processing: Spectra were smoothed by SavitzkyGolay algorithm using 7 m/z width and three cycles. Centroid peak detection algorithm was used with signal to noise threshold set to 6, relative intensity threshold 3%, peak width 10 m/z, and median baseline subtraction using flatness of 1 and the median level of 0.1. Peak intensity and area under the peak were evaluated and recorded for all peaks between 16.0 and 19.5 kDa.
Calculation of percent modification: Percent modification was calculated as a ratio of peak height for protein modified by compound to the sum of the peak height of remaining protein plus peak height for protein modified by a compound. If multiple modifications were observed each was calculated as a ratio of peak height for given modification versus the sum of peak heights for all observed protein species.

The subject of the next assay is pAKT in BT474 cells. The assay is described as follows: Cell-based pAKT HTRF assay in BT474 cells. The note with it: BT474 cells, 4 hr incubation, read-out: pAKT inhibition IC50 in BT474 cells. How it is done: On Day 1, cells were seeded into 96-well plates at 2.5×10^4 cells/well in complete growth media (DMEM, 10% FBS). On Day 2, cells were treated with compounds at 0.25% DMSO. The source plate was created with compounds diluted in media at 5-fold the final assay concentration. The compounds are run in a 9-point concentration curve starting at 3 μM, with a 3-fold dilution between concentrations. 20 μL was transferred onto the cell plates (final volume in wells was 100 μL). Plates were harvested after 4 hr incubation by aspirating media and adding kit-supplied 1× supplemented lysis buffer to all wells (75 μL per well). Plates were then placed on a plate shaker and incubated at 850 rpm for an additional 30 min. The antibody mixture solution was prepared by diluting aliquoted d2 and Eu Cryptate antibodies 1:20 in kit supplied detection buffer, then mixed the diluted antibodies solutions (1:1 v:v). 4 μL of this solution was then added to a 384-well detection plate (Perkin Elmer; 6008230). Samples were homogenized by pipetting up and down and then transferred (16 μL of cell lysates) from the 96-well cell culture plate to two wells of the HTRF 384-well detection plate containing the antibody solution. Plates were centrifuged (524 g for 1 min) and allowed to incubate between 4 and 24 h at room temperature. The maximum signal is reached after 4 h incubation time and remains stable over a period of 24 hours. Therefore, readings can be made between 4 and 24 h of incubation. Plates were centrifuged again (524 g for 1 m), and analyzed on the EnVision plate reader using the following settings: Excitation 320 nm, Bandwidth […]; Emission 615 nm, Bandwidth […], Gain 10000, Flashes 100, Lag 60 μs.
On the technique in general: TR-FRET usually uses a lanthanide donor and a delayed reading to cut background.

Setting [2] is: 3.33 μM protein target, 1:7.5 protein to compound ratio (compounds 1-852).
Where [3] appears, read: 1 μM protein target, 1:5 protein to compound ratio (compounds 853-1279).

Like-named read-outs stand apart in the source and are kept apart here.

Chain of Cys242 in human PIK3CA (157-299) (P42336 157-299): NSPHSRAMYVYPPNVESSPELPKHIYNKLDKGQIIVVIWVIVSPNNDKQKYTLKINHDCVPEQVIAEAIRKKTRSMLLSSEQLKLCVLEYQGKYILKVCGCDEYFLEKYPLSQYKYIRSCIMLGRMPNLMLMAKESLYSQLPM

Regarding `C=CC(=O)N1CCn2nc(-c3nc(-c4ccc5c(c4)[C@@H](O)CC5)c4ccsc4c3-c3ccc(F)cc3OCCOC)cc2C1` [Compound 262], in assay [1] (setting [2]), the “% of modification” value was “A (percent of modification of PIK3CA protein ≥75%)”. Also, the IC50 in the assay on pAKT in BT474 cells (Compounds 10-999) is < 100 nM.
`C=CC(=O)N1CCn2nc(-c3nc(-c4cccc(=O)n4C)c4ccsc4c3-c3c(F)cc(F)cc3OCCOC)cc2C1C` (stereo not shown) [Compound 1020]: the “% of modification” value in assay [1] (setting [3]) is on record as “A (percent of modification of PIK3CA protein ≥75%)”. Moreover, the IC50 with pAKT in BT474 cells (Compounds 1000-1279) is < 100 nM.
Consider `C=CC(=O)N1CCc2nc(-c3nc(-c4ccc(=O)n(C(F)F)c4)c4ccsc4c3-c3c(F)cc(F)cc3OC(C)C)sc2C1` [Compound 347], for which, in assay [1] (setting [2]), the “% of modification” value is listed as “A (percent of modification of PIK3CA protein ≥75%)”. The half-maximal inhibitory concentration (IC50) with pAKT in BT474 cells (Compounds 10-999) lay within 100 to 1000 nM.
With `C=CC(=O)N1Cc2cc(-c3nc(-c4cnn(C)c4)c4ccsc4c3-c3c(F)cc(F)cc3OC(C)C)nn2C[C@H]1C` [Compound 457, 1-((R)-2-((S)-7-(2,4-difluoro-6-isopropoxyphenyl)-4-(1-methyl-1H-pyrazol-4-yl)thieno[3,2-c]pyridin-6-yl)-6-methyl-6,7-dihydropyrazolo[1,5-a]pyrazin-5(4H)-yl)prop-2-en-1-one], in assay [1] (setting [2]), the “% of modification” value is “A (percent of modification of PIK3CA protein ≥75%)”. Also, the IC50 with pAKT in BT474 cells (Compounds 10-999) is < 100 nM.
In the same order, the values of `C=CC(=O)N1CCn2nc(-c3nc(-c4ccc5c(c4)C(O)CC5)c4ccsc4c3-c3ccc(F)cc3OCCOC)nc2C1` (stereo not shown) [Compound 192] are “A (percent of modification of PIK3CA protein ≥75%)” and < 100 nM.
Regarding `C=CC(=O)N1CCn2nc(-c3nc(N4CCC5(CC4)CS(=O)(=O)C5)c4ccsc4c3-c3ccc(F)cc3OC(C)C)cc2C1` [Compound 211], the “% of modification” value in assay [1] (setting [2]) was “A (percent of modification of PIK3CA protein ≥75%)”. The half-inhibitory concentration (IC50) with pAKT in BT474 cells (Compounds 10-999) was < 100 nM.
Regarding `C=CC(=O)N1CCc2ncc(-c3nc(-c4cnc(N)nc4)c4ccsc4c3-c3c(F)cc(F)cc3OC(C)C)cc2C1` [Compound 372], the “% of modification” value in assay [1] (setting [2]) is given as “A (percent of modification of PIK3CA protein ≥75%)”. In the assay on pAKT in BT474 cells (Compounds 10-999), the half-maximal inhibitory concentration (IC50) was < 100 nM.
For the molecule `C=CC(=O)N1CCn2nc(-c3nc(-c4ccc5c(c4)NC(=O)CN(C)C5)c4ccsc4c3-c3c(F)cc(F)cc3OCCO)cc2C1C` (stereo not shown) [Compound 1195], in assay [1] (setting [3]), the “% of modification” value is reported as “A (percent of modification of PIK3CA protein ≥75%)”. Also, in the assay on pAKT in BT474 cells (Compounds 1000-1279), the IC50 is < 100 nM.
As for `C=CC(=O)N1CCn2nc(-c3nc(-c4cnn(C)c4)c4ccsc4c3-c3c(F)cc(F)cc3OCCO)cc2[C@@H]1C` [Compound 640], in assay [1] (setting [2]), the “% of modification” value was “A (percent of modification of PIK3CA protein ≥75%)”. Also, the half-inhibitory concentration (IC50) in the assay on pAKT in BT474 cells (Compounds 10-999) was < 100 nM.
For the molecule `C=CC(=O)N1CCn2nc(-c3nc(-c4ccc5c(c4)C(=O)NC5)c4ccsc4c3-c3c(F)cc(F)cc3OCC(C)(C)O)cc2[C@H]1C` [Compound 1130], the “% of modification” value in assay [1] (setting [3]) is on record as “A (percent of modification of PIK3CA protein ≥75%)”. Besides, the half-inhibitory concentration (IC50) in the assay on pAKT in BT474 cells (Compounds 1000-1279) is < 100 nM.
On to `C=CC(=O)N1CCn2nc(-c3nc(-c4ccc(=O)n(C)c4)ncc3-c3ccc(F)cc3OC(C)C)cc2C1` [Compound 337, 5-[5-(4-fluoro-2-isopropoxy-phenyl)-4-(5-prop-2-enoyl-6,7-dihydro-4H-pyrazolo [1,5-a]pyrazin-2-yl)pyrimidin-2-yl]-1-methyl-pyridin-2-one], for which the “% of modification” value in assay [1] (setting [2]) was “B (50%<percent of modification <75%)”. Moreover, the half-inhibitory concentration (IC50) in the assay with pAKT in BT474 cells (Homo sapiens, BT-474, Compounds 10-999) is > 3000 nM.
`C=CC(=O)N1CCc2ccc(-c3nc(-c4ccc5c(c4)CNC5=O)c4ccsc4c3-c3c(F)cc(F)cc3OCCO)cc2C1` [Compound 950]: in assay [1] (setting [3]), the “% of modification” value is on record as “D (percent of modification <25%)”. Also, the IC50 in the assay with pAKT in BT474 cells (Compounds 10-999) was 100 to 1000 nM.
In the case of `C=CC(=O)N1Cc2cc(-c3nc(-c4ccc5nncn5c4)c4ccsc4c3-c3c(F)cc(F)cc3OCCOC)nn2[C@@H](C)C1` [Compound 693], the “% of modification” value in assay [1] (setting [2]) is recorded as “A (percent of modification of PIK3CA protein ≥75%)”. Moreover, the concentration for half-maximal inhibition (IC50) in the assay on pAKT in BT474 cells (Compounds 10-999) was < 100 nM.
In the same order, the values of `C=C(F)C(=O)N1CCn2nc(-c3nc(-c4ccc(=O)n(C)c4)c4ccsc4c3-c3ccc(F)cc3OC(C)C)nc2C1` [Compound 267] are “A (percent of modification of PIK3CA protein ≥75%)” and 100 to 1000 nM.
